# Measurements reported in patent US20250017921A1, “PHARMACEUTICAL COMBINATION AND TUMOR TREATMENT” (IDEAYA Biosciences Inc., priority 2020, published 2025).
# Legend:
# [1] = test system: cMET, MAPK, PI3K and PKC signaling pathways in MM28 cells; test: Pharmacodynamic western blot, MM28 cells; format: cell-based, human
# Method: (§1) For all experiments, cells were seeded 24 h before treatment at 2.5×10^6 cells in 10 cm^2 tissue culture plates in 10% RPMI media. For IDE196-HGF combinations, cells were treated with the IDE196 and HGF combinations in 2% RPMI media for 2 hrs according to Table 3. For IDE196-MET inhibitor experiments, 24 h after seeding, the media was replaced with the appropriate inhibitor combinations in 2% RPMI media in the presence of 1.23-3.7 ng/ml HGF for 2 h, according to Table 4.
# (§2) For all experiments, cells were washed with ice cold PBS and protein lysates were prepared by lysing cells in a RIPA buffer containing protease and phosphatase inhibitors. Protein samples (15ug/well) were separated on 4-20% Bis-Tris SDS gels and electroblotted to nitrocellulose membranes using iBlot (Invitrogen). The membranes were incubated for 1b in Superblock buffer at RT, followed by overnight incubation with primary antibody at 4° C. The primary antibodies Phospho-Met (Tyr1234/1235) (3077S), cMET (3148S), Phospho-Akt (Ser473) (4060S), Akt (pan) (2920S), Phospho-MARCKS (Ser159/163) (11992S), MARCKS (5607S), PKCδ (9616S), Phospho-p44/42 MAPK (ERK1/2) (Thr202/Tyr204) (4377S), pRAS40 were obtained from Cell Signaling. Total ERK (ab184699) and PKC delta (phospho S299) (ab133456) antibodies were from Abcam. After three washes in PBST, the membrane was incubated with HRP-conjugated secondary antibody for 1 h at RT, washed thrice in PBST, and detected using enhanced chemiluminescence (Biorad Chemidoc XRS).
# [2] = test system: cMET, MAPK, PI3K and PKC signaling pathways in MEL-202 cells; test: Pharmacodynamic western blot, MEL-202 cells; format: cell-based, human
# Method: as §1, §2
# [3] = test system: cMET, MAPK, PI3K and PKC signaling pathways in 92.1 cells; test: Pharmacodynamic western blot, 92.1 cells; format: cell-based, human
# Method: as §1, §2
# MEL-202 cells = test: Cell Titer-Glo cell viability, MEL-202 cells; format: cell-based, human
# Method: (§3) Luminescence was read using a plate reader (TECAN). Average luminescence of cells treated with DMSO was set to 100% and the % viable cells were calculated accordingly. Synergy/antagonism was analyzed using Combenefit software. […] Interactions between various combinations were evaluated using Bliss, HSA, and Loewe synergy/antagonism models. […] Cell viability was measured by CTG three days/five days after treatment.
# (§4) After 24 hrs, the media was changed to 2% FBS/RPMI media. Further, the cell lines were screened for sensitivity to the PKC inhibitor, IDE196 alone or in combination with Hepatocyte growth factor (HGF) (Peprotech); at increasing doses according to Table 1 using a TECAN digital dispenser.
# 92.1 cells = test: Cell Titer-Glo cell viability, 92.1 cells; format: cell-based, human
# Method: as §3, §4
# MM28 cells = test: Cell Titer-Glo cell viability, MM28 cells; format: cell-based, human
# Method: as §3, §4
# [4] = patient; cited from earlier work
# [5] = presence of HGF, crizotinib alone or in combination with IDE196
# [6] = dose-dependent, not inhibited by addition of IDE196
# [7] = at or above 3.7 ng/mL HGF, all concentrations of IDE196, HSA, Loewe, Bliss
# [8] = presence of HGF, IDE196 alone and in combination with crizotinib
# [9] = presence of HGF, IDE196 alone, up to highest concentrations
molecule,measurement,setting,value
"C[C@@H](Oc1cc(-c2cnn(C3CCNCC3)c2)cnc1N)c1c(Cl)ccc(F)c1Cl [crizotinib, reference compound]","HGF induced pMET, pERK, pAKT and pPRAS40 levels",[1]; [5],strongly inhibited
same,"HGF induced pMET, pERK, pAKT and pPRAS40 levels",[2]; [5],strongly inhibited
same,"pERK, pAKT and pPRAS40","[3]; presence of HGF, higher concentrations of crizotinib alone or in combination with IDE196",modest decrease
"HGF: Hepatocyte growth factor (Peprotech), the endogenous ligand for the extracellular cMET receptor","pERK (MAPK signaling), pAKT and pPRAS40 (PI3K signaling) on addition of HGF",[1]; [6],induced
same,cell viability on exposure to exogeneous HGF,MEL-202 cells; HGF alone,increased cell viability significantly
same,antagonism of IDE196 induced growth inhibition by HGF,MEL-202 cells; [7],high antagonism
same,"pERK (MAPK signaling), pAKT and pPRAS40 (PI3K signaling) on addition of HGF",[2]; [6],induced
same,antagonism of IDE196 induced growth inhibition by HGF,"92.1 cells; 1.23 to 33.33 ng/ml HGF, HSA, Loewe, Bliss",modest antagonism
same,cell viability on exposure to exogeneous HGF,92.1 cells; HGF alone,not
same,cell viability on exposure to exogeneous HGF,MM28 cells; HGF alone,increased cell viability significantly
same,antagonism of IDE196 induced growth inhibition by HGF,MM28 cells; [7],high antagonism
same,"pERK (MAPK signaling), pAKT and pPRAS40 (PI3K signaling) on addition of HGF",[3]; [6],induced
"CNC(=O)c1ccc(-c2cnc3ncc(Cc4ccc5ncccc5c4)n3n2)cc1F [capmatinib, reference compound]",half-life,[4],about 6.5 hours
same,synergy with IDE196 on cell viability,"MEL-202 cells; 1.23 ng/ml HGF, all doses of capmatinib, starting at 80 nM IDE196",high synergy
same,synergy with IDE196 on cell viability,"92.1 cells; 1.23 ng/ml HGF, capmatinib, any dose combination",did not synergize
same,synergy with IDE196 on cell viability,"MM28 cells; 1.23 ng/ml HGF, capmatinib, all the doses",high synergy
"CC1(N)CCN(c2cccnc2NC(=O)c2nc(-c3ncccc3C(F)(F)F)cnc2N)CC1 [IDE196, 3-amino-N-(3-(4-amino-4-methylpiperidin-1-yl)pyridin-2-yl)-6-(3-(trifluoromethyl)pyridin-2-yl)pyrazine-2-carboxamide]",pMARCKS and pPKC-delta,[1]; IDE196 treatment alone,dose-dependent decrease
same,dose at which pERK was inhibited,"[1]; absence of HGF, 2 h",above 400 nM
same,effect on pAKT or pPRAS40,"[1]; presence of HGF, IDE196 alone",no effect
same,pMARCKS or pPKCδ,[1]; [8],dose-dependent decrease
same,pERK inhibition,[1]; [9],did not inhibit
same,EC50,"MEL-202 cells; Homo sapiens, Mel202, 72 h, IDE196 alone, day 3, N=3, read-out: inhibition of cell viability EC50",250 nM
same,pMARCKS and pPKC-delta,[2]; IDE196 treatment alone,dose-dependent decrease
same,dose at which pERK was inhibited,"[2]; absence of HGF, 2 h",above 400 nM
same,effect on pAKT or pPRAS40,"[2]; presence of HGF, IDE196 alone",no effect
same,pMARCKS or pPKCδ,[2]; [8],dose-dependent decrease
same,pERK inhibition,[2]; [9],did not inhibit
same,EC50,"92.1 cells; Homo sapiens, 72 h, IDE196 alone, day 3, N=3, read-out: inhibition of cell viability EC50",113 nM
same,EC50,"MM28 cells; Homo sapiens, 120 h, IDE196 alone, day 5, N=3, read-out: inhibition of cell viability EC50",342 nM
same,pMARCKS and pPKC-delta,[3]; IDE196 treatment alone,dose-dependent decrease
same,dose at which pERK was inhibited,"[3]; absence of HGF, 2 h",above 400 nM
same,effect on pAKT or pPRAS40,"[3]; presence of HGF, IDE196 alone",no effect
same,pMARCKS or pPKCδ,[3]; [8],dose-dependent decrease
same,pERK inhibition,[3]; [9],did not inhibit
